From patent publication US10849838B2, “Biaromatic vitamin D analogs” (DSM IP ASSETS B.V., priority 2015, dated 2020) come the findings set out here.

The target in the assay is T1, human vitamin D receptor (VDR) (Homo sapiens, UniProt P11473).
T1 construct: expressed in transfected cells; host or cells: HEK293 cells (ATCC), transient transfection
T1 sequence (P11473 127-423 limits assumed): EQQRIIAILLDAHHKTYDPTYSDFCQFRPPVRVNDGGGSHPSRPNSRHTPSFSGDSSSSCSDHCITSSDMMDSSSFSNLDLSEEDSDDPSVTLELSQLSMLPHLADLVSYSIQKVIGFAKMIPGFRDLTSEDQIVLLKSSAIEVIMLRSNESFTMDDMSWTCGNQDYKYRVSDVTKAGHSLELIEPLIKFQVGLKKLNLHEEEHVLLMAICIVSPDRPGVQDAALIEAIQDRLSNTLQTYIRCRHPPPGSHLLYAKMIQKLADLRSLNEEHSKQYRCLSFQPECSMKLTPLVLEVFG
The assay is described as follows: Human vitamin D receptor (VDR) agonist activity, GAL4-VDR LBD luciferase transactivation assay in transiently transfected HEK293 cells. Particulars: hybrid VDR-GAL4 receptor, pFR-Luc luciferase reporter, 16 h incubation, read-out: Effective concentrations of half maximal activation (EC50). The class given is cell-based. From the text:
By way of example, the human vitamin D receptor (VDR) agonist activity of the claimed compounds can be tested using a cell based transactivation assay in an eukaryotic cell line. After a co-transfection, using a reporter plasmid construct and a hybrid receptor construct containing the ligand-binding domain of the human VDR linked to the DNA-binding domain of the yeast transcription factor GAL4, the cultured cells were stimulated by the VDR agonists. The hybrid VDR-GAL4 receptor binds the VDR agonists and transactivates luciferase reporter expression through the GAL4-response elements in the promoter of the luciferase gene (reporter construct). The VDR agonist binding and transactivation is determined by measuring the luciferase luminescence activity. The effective concentration of half maximal activation (EC50) was determined for the VDR agonists by means of dose-response experiments. The details of the protocol method of this test according to the invention are described in the example section. […]
On the technique in general: Reporter assays use an easily measured gene product as a stand-in for the process of interest.

As to `CC/C(=C\C=C\C(O)(CC)CC)c1cccc(CCc2ccc(CO)c(C(C)O)c2)c1` (racemic) [Comp1], the EC50 worked out at 113 nM.
For `CC/C(=C\C=C\C(O)(CC)CC)c1cccc(CCc2ccc(C(C)O)c(CO)c2)c1` (racemic) [I-a, (4E,6E)-3-ethyl-7-(3-(4-(1-hydroxyethyl)-3-(hydroxymethyl)phenethyl)phenyl)nona-4,6-dien-3-ol] the value was 7 nM.
